From ChEMBL document CHEMBL1201862, “PubChem BioAssay data set” (2004)
The source made the active and inactive calls.

Experiments:
[1] = biological target: T1, Beta-lactamase (Pseudomonas aeruginosa, UniProt Q79MP6); assay: inhibition of IMP-1 beta-lactamase activity – biochemical, epi-absorbance, selectivity assay for VIM-2 inhibitor project, dose response (AID 1920)
[2] = biological target: DNA dC->dU-editing enzyme APOBEC-3G (Homo sapiens, UniProt Q9HC16); assay: Dose Response confirmation of small molecule APOBEC3G DNA Deaminase Inhibitors via a fluorescence-based single-stranded DNA deaminase assay. [Related pubchem assays (depositor defined):AID493012, AID493028]; format: functional
Chain of DNA dC->dU-editing enzyme APOBEC-3G (Q9HC16 whole entry): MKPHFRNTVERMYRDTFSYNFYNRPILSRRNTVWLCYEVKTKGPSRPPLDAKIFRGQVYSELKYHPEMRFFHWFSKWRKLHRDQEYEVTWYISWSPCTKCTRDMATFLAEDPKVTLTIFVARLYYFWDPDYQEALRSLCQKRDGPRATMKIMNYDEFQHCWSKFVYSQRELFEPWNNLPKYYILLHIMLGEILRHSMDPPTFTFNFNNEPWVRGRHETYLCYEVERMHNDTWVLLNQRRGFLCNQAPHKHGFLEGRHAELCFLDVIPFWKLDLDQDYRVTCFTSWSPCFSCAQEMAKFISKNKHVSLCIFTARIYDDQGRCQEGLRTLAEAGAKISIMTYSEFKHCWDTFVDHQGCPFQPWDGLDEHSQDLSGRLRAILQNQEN

[3] = biological target: FAD-linked sulfhydryl oxidase ALR (Homo sapiens, UniProt P55789); assay: ALR-catalysed DTT oxidation blockers – biochemical, H2O2 detection, luminescence, cherry-pick, dose response (AID 493248)
Chain of FAD-linked sulfhydryl oxidase ALR (P55789 whole entry): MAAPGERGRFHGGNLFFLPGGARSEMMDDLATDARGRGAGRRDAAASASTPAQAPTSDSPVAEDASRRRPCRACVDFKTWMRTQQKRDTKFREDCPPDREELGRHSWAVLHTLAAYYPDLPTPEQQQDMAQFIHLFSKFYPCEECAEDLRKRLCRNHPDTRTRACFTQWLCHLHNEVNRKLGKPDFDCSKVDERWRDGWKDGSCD

[4] = biological target: T1, Beta-lactamase; assay: […] counterscreen for selective VIM-2 inhibitors: dose response biochemical high throughput screening assay to identify inhibitors of IMP-1 metallo-beta-lactamase.
[5] = biological target: DNA dC->dU-editing enzyme APOBEC-3A (Homo sapiens, UniProt P31941); assay: A3A deaminase inhibition for selectivity – biochemical, dose response (AID 504722); format: functional
Chain of DNA dC->dU-editing enzyme APOBEC-3A (P31941 whole entry): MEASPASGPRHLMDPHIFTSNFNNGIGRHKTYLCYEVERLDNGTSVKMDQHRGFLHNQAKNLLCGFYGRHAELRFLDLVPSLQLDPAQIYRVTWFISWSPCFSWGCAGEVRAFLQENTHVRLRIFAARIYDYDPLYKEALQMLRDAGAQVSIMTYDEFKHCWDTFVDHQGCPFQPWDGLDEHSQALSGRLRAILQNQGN

[6] = biological target: Beta-lactamase (Salmonella choleraesuis (strain SC-B67), UniProt Q5J463); assay: Epi-absorbance-based counterscreen for selective VIM-2 inhibitors: dose response biochemical high throughput screening assay to identify inhibitors of TEM-1 serine-beta-lactamase.
Chain of Beta-lactamase (Salmonella choleraesuis (strain SC-B67), UniProt Q5J463) (Q5J463 whole entry): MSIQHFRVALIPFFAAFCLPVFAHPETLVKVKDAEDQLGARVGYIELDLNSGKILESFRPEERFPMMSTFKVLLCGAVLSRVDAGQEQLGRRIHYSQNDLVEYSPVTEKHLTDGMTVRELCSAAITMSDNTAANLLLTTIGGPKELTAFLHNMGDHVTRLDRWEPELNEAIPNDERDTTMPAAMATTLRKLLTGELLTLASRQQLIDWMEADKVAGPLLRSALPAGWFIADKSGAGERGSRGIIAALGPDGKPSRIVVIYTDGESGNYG

[7] = biological target: T2, Microphthalmia-associated transcription factor (Homo sapiens, UniProt O75030); assay: reducers of TRPM1 reporter luminescence, concentration series – cell-based, SK-MEL-5, cherry-picked, set 3, MITF inhibitor project, dose response (AID 493073); format: functional;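 also: SK-MEL-5 melanoma cells with luciferase driven by the MITF target TRPM1 promoter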
T2 sequence (O75030 whole entry): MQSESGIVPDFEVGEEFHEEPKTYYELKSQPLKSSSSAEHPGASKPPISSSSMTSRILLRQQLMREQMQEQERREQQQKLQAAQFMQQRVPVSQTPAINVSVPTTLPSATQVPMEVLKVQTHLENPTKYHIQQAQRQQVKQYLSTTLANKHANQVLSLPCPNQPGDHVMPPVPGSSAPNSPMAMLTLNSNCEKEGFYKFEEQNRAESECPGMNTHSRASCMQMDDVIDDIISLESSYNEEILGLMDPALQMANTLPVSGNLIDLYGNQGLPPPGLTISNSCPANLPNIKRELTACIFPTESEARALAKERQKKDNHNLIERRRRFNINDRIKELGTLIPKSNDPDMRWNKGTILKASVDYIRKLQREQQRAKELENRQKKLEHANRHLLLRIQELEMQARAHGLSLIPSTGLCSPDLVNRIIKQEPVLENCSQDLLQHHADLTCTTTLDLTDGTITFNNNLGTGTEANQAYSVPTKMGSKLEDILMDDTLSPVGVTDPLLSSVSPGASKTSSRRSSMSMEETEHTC

[8] = tested on: BJ; assay: BJ-TERT fibroblast viability loss – cell-based, RAS-independent, luminescence, dose response (AID 1933); format: functional; conditions: Homo sapiens
[9] = biological target: T3, Heat shock factor protein 1 (Mus musculus, UniProt P38532); assay: decrease of HSF1-responsive luciferase luminescence – cell-based, NIH3T3, dose retest, confirmation (AID 2382); format: functional;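 also: NIH3T3 fibroblasts with HSF1-driven luciferase reporter stressed by proteasome inhibitor MG132; luminescence from HSF1-driven luciferase expression after 8 hours of MG132 stress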
T3 sequence (P38532 whole entry): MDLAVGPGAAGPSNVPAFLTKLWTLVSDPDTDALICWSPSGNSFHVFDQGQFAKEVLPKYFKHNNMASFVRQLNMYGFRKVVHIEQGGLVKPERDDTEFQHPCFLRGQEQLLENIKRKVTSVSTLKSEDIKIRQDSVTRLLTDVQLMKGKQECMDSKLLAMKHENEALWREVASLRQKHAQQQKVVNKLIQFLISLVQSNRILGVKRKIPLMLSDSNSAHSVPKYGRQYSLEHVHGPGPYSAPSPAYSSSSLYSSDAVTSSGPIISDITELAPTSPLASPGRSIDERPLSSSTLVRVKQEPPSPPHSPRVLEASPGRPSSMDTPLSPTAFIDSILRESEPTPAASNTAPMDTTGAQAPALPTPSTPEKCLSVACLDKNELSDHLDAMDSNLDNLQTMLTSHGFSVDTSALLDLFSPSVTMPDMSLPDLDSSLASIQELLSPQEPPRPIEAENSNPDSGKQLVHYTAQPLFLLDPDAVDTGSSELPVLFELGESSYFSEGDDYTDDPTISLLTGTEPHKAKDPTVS

[10] = tested on: A-375; assay: proliferation inhibition in MITF-low A375 cells – cell-based, cherry-pick samples, set 2, counter-screen for MITF modulator project, dose response (AID 540335); format: functional; conditions: Homo sapiens
[11] = tested on: BJ; assay: BJ-TERT-LT-ST fibroblast viability loss – cell-based, RAS-independent, luminescence, dose response (AID 1935); format: functional; conditions: Homo sapiens;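 also: BJ fibroblasts immortalized with TERT plus LT and ST oncogenes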
[12] = tested on: BJ; assay: cells; format: functional, cell-based; conditions: Homo sapiens
[13] = DRD fibroblast viability loss – cell-based, non-viral oncogenic, luminescence, dose response (AID 1934); format: functional; conditions: Homo sapiens
[14] = biological target: Cytochrome P450 3A4 (Homo sapiens, UniProt P08684);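 also: CYP3A4 tested as one member of a cytochrome P450 panel screen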
Chain of Cytochrome P450 3A4 (P08684 whole entry): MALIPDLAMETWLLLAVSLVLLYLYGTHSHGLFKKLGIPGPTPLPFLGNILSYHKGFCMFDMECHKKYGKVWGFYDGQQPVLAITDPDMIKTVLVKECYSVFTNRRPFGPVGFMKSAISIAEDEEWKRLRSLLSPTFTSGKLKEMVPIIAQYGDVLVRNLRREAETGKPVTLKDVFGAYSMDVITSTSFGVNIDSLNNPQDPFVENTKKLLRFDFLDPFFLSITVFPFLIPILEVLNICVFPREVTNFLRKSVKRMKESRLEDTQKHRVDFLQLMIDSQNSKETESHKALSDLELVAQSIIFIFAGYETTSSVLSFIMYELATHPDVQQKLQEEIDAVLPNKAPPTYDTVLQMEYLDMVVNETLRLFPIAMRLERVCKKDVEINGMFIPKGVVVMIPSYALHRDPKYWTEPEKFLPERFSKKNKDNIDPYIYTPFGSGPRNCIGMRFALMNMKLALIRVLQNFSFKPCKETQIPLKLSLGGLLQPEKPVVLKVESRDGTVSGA

[15] = biological target: T4, G-protein coupled receptor 55 (Homo sapiens, UniProt Q9Y2T6); assay: inhibition of LPI-stimulated GPR55 beta-arrestin translocation – imaging, U2OS, beta-arrestin-GFP, LPI agonist, primary screen (AID 2013); format: functional;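 also: antagonist potency measured as reduced agonist-driven arrestin aggregation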
T4 sequence (Q9Y2T6 whole entry): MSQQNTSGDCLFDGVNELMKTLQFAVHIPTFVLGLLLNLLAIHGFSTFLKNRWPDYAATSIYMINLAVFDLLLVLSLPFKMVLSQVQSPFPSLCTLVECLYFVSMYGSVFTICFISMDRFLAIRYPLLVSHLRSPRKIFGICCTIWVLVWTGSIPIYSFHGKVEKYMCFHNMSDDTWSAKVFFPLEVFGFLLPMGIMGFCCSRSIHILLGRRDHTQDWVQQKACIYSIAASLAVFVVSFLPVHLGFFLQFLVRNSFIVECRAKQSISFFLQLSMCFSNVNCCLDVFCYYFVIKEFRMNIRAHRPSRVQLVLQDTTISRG

[16] = Luminescence Cell-Based Dose Retest to Confirm Inhibitors of Cancer Stem Cells. [Related pubchem assays (depositor defined):AID2717, AID2721]; format: functional; conditions: Homo sapiens
[17] = biological target: Cannabinoid receptor 1 (Homo sapiens, UniProt P21554); assay: SAR analysis of antagonists of the Cannabinoid Receptor 1 using an Image-Based Assay. [Related pubchem assays (depositor defined):AID1961, AID1965]; format: functional
Chain of Cannabinoid receptor 1 (P21554 whole entry): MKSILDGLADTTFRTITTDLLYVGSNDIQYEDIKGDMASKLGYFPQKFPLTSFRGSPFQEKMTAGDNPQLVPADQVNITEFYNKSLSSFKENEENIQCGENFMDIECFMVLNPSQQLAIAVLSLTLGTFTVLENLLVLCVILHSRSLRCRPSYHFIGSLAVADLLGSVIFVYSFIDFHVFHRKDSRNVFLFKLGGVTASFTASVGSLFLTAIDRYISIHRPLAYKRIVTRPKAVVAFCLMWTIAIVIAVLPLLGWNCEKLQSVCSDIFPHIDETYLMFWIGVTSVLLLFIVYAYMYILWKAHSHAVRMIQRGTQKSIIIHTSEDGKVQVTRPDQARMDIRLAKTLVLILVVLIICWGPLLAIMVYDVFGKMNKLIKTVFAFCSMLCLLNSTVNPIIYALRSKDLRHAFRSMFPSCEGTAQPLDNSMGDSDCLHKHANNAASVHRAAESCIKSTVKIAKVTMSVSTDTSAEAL

[18] = biological target: T4, G-protein coupled receptor 55; assay: selective activators of receptor GPR55 – imaging, U2OS cells, beta-arrestin-GFP redistribution, primary screen (AID 1961); format: functional
[19] = biological target: T4, G-protein coupled receptor 55; assay: SAR analysis of selective Agonists of GPR55 using an Image-Based Assay. [Related pubchem assays (depositor defined):AID1961, AID1965]; format: functional
[20] = biological target: T5, Cannabinoid receptor 2 (Homo sapiens, UniProt P34972); assay: SAR analysis of agonists of the Cannabinoid Receptor 2 using an Image-Based Assay - Set 2. [Related pubchem assays (depositor defined):AID1961, AID1965]; format: functional
T5 sequence (P34972 whole entry): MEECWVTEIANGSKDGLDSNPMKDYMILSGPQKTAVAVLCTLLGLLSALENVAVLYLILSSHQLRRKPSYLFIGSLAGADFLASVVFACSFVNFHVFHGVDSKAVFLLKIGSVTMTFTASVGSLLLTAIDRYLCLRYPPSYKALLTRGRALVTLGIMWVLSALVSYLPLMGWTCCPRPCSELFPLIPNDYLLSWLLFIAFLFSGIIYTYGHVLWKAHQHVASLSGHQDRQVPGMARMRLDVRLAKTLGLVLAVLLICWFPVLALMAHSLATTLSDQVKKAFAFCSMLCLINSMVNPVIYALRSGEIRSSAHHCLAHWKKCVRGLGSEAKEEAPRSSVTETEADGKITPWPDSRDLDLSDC

[21] = biological target: T5, Cannabinoid receptor 2; assay: SAR analysis of antagonists of the Cannabinoid Receptor 2 using an Image-Based Assay - Set 2. [Related pubchem assays (depositor defined):AID1961, AID1965]; format: functional
[22] = biological target: T6, Alkaline phosphatase, tissue-nonspecific isozyme (Homo sapiens, UniProt P05186); assay: potency against alkaline phosphatase TNAP – biochemical, luminescent, dose response, SAR follow-up (AID 1056)
T6 sequence (P05186 whole entry): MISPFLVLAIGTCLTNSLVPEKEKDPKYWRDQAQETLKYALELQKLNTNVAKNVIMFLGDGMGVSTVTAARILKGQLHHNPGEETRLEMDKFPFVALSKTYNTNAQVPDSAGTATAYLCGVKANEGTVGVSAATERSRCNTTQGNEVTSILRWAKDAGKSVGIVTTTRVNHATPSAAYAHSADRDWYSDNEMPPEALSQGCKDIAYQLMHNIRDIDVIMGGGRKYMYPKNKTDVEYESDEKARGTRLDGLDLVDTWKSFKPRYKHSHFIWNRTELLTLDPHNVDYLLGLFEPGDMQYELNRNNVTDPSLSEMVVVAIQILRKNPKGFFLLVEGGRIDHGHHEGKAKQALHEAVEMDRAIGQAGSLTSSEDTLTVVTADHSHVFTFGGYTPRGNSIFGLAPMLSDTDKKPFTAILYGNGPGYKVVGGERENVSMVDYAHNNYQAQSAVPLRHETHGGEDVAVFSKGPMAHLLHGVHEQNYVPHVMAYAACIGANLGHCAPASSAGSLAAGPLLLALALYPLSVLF

[23] = biological target: Glyceraldehyde-3-phosphate dehydrogenase (Homo sapiens, UniProt P04406)
Chain of Glyceraldehyde-3-phosphate dehydrogenase (P04406 whole entry): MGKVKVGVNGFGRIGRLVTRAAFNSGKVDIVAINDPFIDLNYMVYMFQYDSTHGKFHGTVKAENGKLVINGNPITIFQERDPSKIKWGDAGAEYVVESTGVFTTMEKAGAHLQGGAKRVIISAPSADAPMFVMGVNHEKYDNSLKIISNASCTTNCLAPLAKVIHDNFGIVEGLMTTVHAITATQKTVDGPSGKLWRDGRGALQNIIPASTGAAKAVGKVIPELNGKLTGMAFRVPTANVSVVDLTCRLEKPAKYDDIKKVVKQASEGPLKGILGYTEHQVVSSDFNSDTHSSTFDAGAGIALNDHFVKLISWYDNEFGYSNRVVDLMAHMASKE

[24] = biological target: Troponin, cardiac muscle (Homo sapiens, UniProt P19429+P45379+P63316); assay: Fluorescence-based biochemical high throughput dose response assay for activators of the calcium sensitivity of cardiac Regulated Thin Filaments (RTF). [Related pubchem assays (depositor defined):AID493008, AID493018, AID504382, AID504383]; format: protein-complex assay
[25] = viability of uninfected HEp-2 cells – cell-based, HTS, cytotoxicity control for RSV inhibitor project, dose response (AID 2410); format: functional; conditions: human respiratory syncytial virus
[26] = biological target: T7, Orexin/Hypocretin receptor type 1 (Homo sapiens, UniProt O43613); assay: Homogeneous Time Resolved Fluorescence (HTRF)-based cell-based high throughput dose response assay for antagonists of the orexin 1 receptor (OX1R; HCRTR1). [Related pubchem assays (depositor defined):AID434989, AID435008, AID463079, AID485270, AID492963, AID492964, AID492965, AID493232, AID504717, AID504718]; format: functional
T7 sequence (O43613 whole entry): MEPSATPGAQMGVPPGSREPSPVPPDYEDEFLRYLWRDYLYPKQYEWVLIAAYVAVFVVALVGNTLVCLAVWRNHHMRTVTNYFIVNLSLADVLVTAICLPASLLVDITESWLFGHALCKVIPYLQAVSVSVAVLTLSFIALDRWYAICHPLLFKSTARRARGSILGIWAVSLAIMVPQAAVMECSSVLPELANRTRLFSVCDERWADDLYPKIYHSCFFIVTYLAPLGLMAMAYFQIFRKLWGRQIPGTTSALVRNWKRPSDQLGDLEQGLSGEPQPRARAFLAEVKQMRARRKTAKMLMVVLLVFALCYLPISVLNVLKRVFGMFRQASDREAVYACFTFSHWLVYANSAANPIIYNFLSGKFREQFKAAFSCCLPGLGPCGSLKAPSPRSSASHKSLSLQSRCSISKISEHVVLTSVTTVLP

[27] = biological target: T7, Orexin/Hypocretin receptor type 1; assay: Fluorescence-based cell-based high throughput dose response assay for antagonists of the orexin 1 receptor (OX1R; HCRTR1). [Related pubchem assays (depositor defined):AID434989, AID435008, AID463079, AID485270, AID492963, AID492964, AID492965, AID493232, AID504717, AID504718]; format: functional
[28] = tested on: Streptococcus; assay: GAS UMAA2166 growth inhibition – luminescence, BacTiterGlo, counter-screen for streptokinase expression inhibitor project, dose response (AID 1915); format: functional, organism-based;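 also: potency for reduction of bacterial viability or growth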
[29] = tested on: CHO-K1; assay: Counterscreen for antagonists of the orexin 1 receptor (OX1R; HCRTR1): Homogeneous time resolved fluorescence (HTRF)-based cell-based dose response assay to identify antagonists of the parental CHO-K1 cell line. [Related pubchem assays (depositor defined):AID434989, AID435008, AID463079, AID485270, AID492963, AID492964, AID492965, AID493232, AID504699, AID504701]; format: functional; conditions: Cricetulus griseus;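 also: potency for inhibition of ATP-stimulated IP1 production as antagonists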
[30] = tested on: Streptococcus sp. 'group A'; assay: Streptococcus pyogenes SK(-)GAS viability under kanamycin – luminescence, BacTiterGlo, confirmation, counter-screen for streptokinase expression inhibitor project, dose response (AID 1900); format: functional, organism-based
[31] = cells
[32] = Counterscreen for antagonists of the orexin 1 receptor (OX1R; HCRTR1): Fluorescence-based cell-based high throughput dose response assay to identify antagonists of the parental CHO cell line. [Related pubchem assays (depositor defined):AID434989, AID435008, AID463079, AID485270, AID492963, AID492964, AID492965, AID493232, AID504699, AID504701]; format: functional

T1 sequence (Q79MP6 whole entry): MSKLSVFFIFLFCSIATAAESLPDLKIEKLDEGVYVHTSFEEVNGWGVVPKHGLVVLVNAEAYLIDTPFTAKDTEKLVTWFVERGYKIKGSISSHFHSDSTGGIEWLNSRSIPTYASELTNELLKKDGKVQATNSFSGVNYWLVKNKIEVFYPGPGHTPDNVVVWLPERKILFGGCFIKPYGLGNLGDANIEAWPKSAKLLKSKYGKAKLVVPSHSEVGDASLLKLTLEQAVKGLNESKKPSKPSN

S=c1[nH]nc(-c2ccco2)n1Cc1ccccc1
IC50 [1]: > 59.6 µM (inactive)
IC50 [2]: 2.89 µM (active)
AC50 [3]: 7.95 µM (active)
IC50 [4]: > 59.6 µM (inactive)
IC50 [5]: > 100 µM (inactive)
IC50 [6]: > 59.6 µM (inactive)

CCCCN1C=CC(=C2C(=O)c3ccccc3C2=O)C=C1
AC50 [7]: 0.921 µM (active)
EC50 [8]: 6.03 µM (active)
EC50 [9]: 0.356 µM (active)
AC50 [10]: 20.6 µM (active)
EC50 [11]: > 150 µM (inconclusive)
EC50 [12]: 7.56 µM (active)
EC50 [13]: 7.63 µM (active)

Cc1ccc(C(=O)c2c[nH]c(C(=O)NCCCN3CCOCC3)c2)cc1
AC50 [14]: inconclusive

Cc1nn(C(C)(C)C)c(OC(=O)c2cccs2)c1Sc1ccccc1
IC50 [15]: 5.36 µM (active)

O=c1c2ccccc2nc2n1C1(CCCCC1)Cc1ccccc1-2
AC50 [16]: 2.06 µM (active)
IC50 [15]: 2.41 µM (active)

COc1ccc2cc(C)c3nnc(SCC(=O)Nc4nc(-c5ccc(F)cc5)cs4)n3c2c1
IC50 [17]: > 32 µM (inactive)
EC50 [18]: < 0.5 µM (active)
EC50 [19]: 0.164 µM (active)
EC50 [20]: > 32 µM (inactive)
IC50 [21]: > 32 µM (inactive)

Cc1cc(C)c(S(=O)(=O)Nc2ccc3ccccc3c2)c(C)c1
IC50 [22]: > 100 µM (inactive)
IC50 [23]: > 100 µM (not active)

COc1ccc2c(c1)cc(C)c1nnc(SCC(=O)N(C)c3nc(-c4ccccc4)cs3)n12
IC50 [17]: > 32 µM (inactive)
EC50 [19]: > 32 µM (inactive)
EC50 [20]: > 32 µM (inactive)
IC50 [21]: > 32 µM (inactive)

CCOc1cc(C)c(C(C)C)cc1S(=O)(=O)Nc1cccnc1
IC50 [22]: 18.9 µM (active)

Cc1nnc(N/N=C/c2ccc(O)c([N+](=O)[O-])c2)nc1O
EC50 [24]: > 71.5 µM (inactive)

COC(=O)N1CCC2(CCN(Cc3nccs3)CC2)CC1
AC50 [14]: inconclusive

O=C(O)c1ccc(N2C(=O)CC(SC(=NCc3ccc4c(c3)OCO4)Nc3ccc(F)cc3)C2=O)cc1 (centres undefined)
CC50 [25]: 32.4 µM (active)
IC50 [26]: 24.5 µM (inactive)
IC50 [27]: 14.3 µM (inactive)
EC50 [28]: 29 µM (active)
IC50 [29]: > 66.2 µM (inactive)
EC50 [30]: 4.89 µM (active)
IC50 [31]: 23.9 µM (active)
IC50 [32]: 23.2 µM (inactive)
